Laboratory results taken from ChEMBL document CHEMBL4428068, “Allosteric Modulation of Phosphatase Activity May Redefine Therapeutic Value” (J Med Chem, 2016).

Molecular target: T1, Tyrosine-protein phosphatase non-receptor type 11 (Homo sapiens, UniProt Q06124)
T1 sequence (Q06124 whole entry): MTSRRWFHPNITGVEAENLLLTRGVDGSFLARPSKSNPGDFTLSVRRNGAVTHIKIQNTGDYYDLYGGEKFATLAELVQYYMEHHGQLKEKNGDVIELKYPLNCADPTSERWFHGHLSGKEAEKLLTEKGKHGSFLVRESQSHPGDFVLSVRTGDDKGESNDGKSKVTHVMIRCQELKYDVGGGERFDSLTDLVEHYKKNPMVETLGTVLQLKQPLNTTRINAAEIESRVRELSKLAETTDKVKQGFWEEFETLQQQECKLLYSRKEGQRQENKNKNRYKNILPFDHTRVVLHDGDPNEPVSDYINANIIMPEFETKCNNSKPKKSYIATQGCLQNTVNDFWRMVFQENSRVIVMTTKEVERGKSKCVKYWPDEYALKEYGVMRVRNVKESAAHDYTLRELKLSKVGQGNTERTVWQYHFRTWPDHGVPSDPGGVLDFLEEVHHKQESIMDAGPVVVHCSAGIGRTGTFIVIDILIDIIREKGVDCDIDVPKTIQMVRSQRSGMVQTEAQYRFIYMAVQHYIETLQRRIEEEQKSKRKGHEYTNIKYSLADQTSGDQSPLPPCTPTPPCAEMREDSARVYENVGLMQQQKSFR
Experiment: Negative allosteric modulator activity at SHP2 (unknown origin)

Molecule `C[C@@H]1CN(c2ncc(-c3cccc(Cl)c3Cl)c(N)n2)C[C@H](C)N1` has an IC50 of 12 µM.
